Assay results as given in publication PMC11163866 (Journal of medicinal chemistry, 2024).

Key:
[1] = In vitro metabolic stability in mouse liver microsomes; assay type: in vitro ADME; conditions: 1 μM; 0.5 mg/mL microsomes; up to 60 min
[2] = In vitro metabolic stability in human liver microsomes; assay type: in vitro ADME; conditions: 1 μM; 0.5 mg/mL microsomes; up to 60 min

In the case of COC1=CC(c2ccc(Cc3ccc(OC)cc3)[nH]2)=N/C1=C\NC1CCCCCCC1.Cl [compound 122, (Z)-N-((4'-Methoxy-5-(4-methoxybenzyl)-1H,5'H-[2,2'-bipyrrol]-5'-ylidene)methyl)cyclooctanamine Hydrochloride], the “metabolic stability (t1/2, min) vs MLM” value [1] was 16.5 min and the “metabolic stability (t1/2, min) vs HLM” value [2] was 50.8 min.
In the case of Cl.Fc1cc(F)cc(OC2=CC(c3ccc[nH]3)=N/C2=C\NC23CC4CC(CC(C4)C2)C3)c1 [compound 74, (3s,5s,7s)-N-((Z)-(4'-(3,5-Difluorophenoxy)-1H,5'H-[2,2'-bipyrrol]-5'-ylidene)methyl)adamantan-1-amine Hydrochloride], the “metabolic stability (t1/2, min) vs MLM” value [1] was > 60.0 min and the “metabolic stability (t1/2, min) vs HLM” value [2] was > 60.0 min.
For COc1ccc(Oc2ccc(N/C=C3\N=C(c4ccc[nH]4)C4=C3CCCC4)cc2)cc1.Cl [compound 108, (Z)-N-((3-(1H-Pyrrol-2-yl)-4,5,6,7-tetrahydro-1H-isoindol-1-ylidene)methyl)-4-(4-methoxyphenoxy)aniline Hydrochloride], the “metabolic stability (t1/2, min) vs MLM” value [1] was > 60.0 min and the “metabolic stability (t1/2, min) vs HLM” value [2] was > 60.0 min.
With COC1=CC(c2ccc[nH]2)=N/C1=C\Nc1ccc(OC(F)(F)F)cc1.Cl [compound 54, (Z)-N-((4'-Methoxy-1H,5'H-[2,2'-bipyrrol]-5'-ylidene)methyl)-4-(trifluoromethoxy)aniline Hydrochloride] the “metabolic stability (t1/2, min) vs MLM” value [1] was 45.1 min and the “metabolic stability (t1/2, min) vs HLM” value [2] was > 60.0 min.
For CCCCCCN/C=C1\N=C(c2ccc[nH]2)C=C1OC.Cl [compound 42], the “metabolic stability (t1/2, min) vs MLM” value [1] was 10.2 min and the “metabolic stability (t1/2, min) vs HLM” value [2] was 17.1 min.
With Cl.Clc1ccc(OC2=CC(c3ccc[nH]3)=N/C2=C\NC23CC4CC(CC(C4)C2)C3)cc1 [compound 77, (3s,5s,7s)-N-((Z)-(4'-(4-Chlorophenoxy)-1H,5'H-[2,2'-bipyrrol]-5'-ylidene)methyl)adamantan-1-amine Hydrochloride] the “metabolic stability (t1/2, min) vs MLM” value [1] was > 60 min and the “metabolic stability (t1/2, min) vs HLM” value [2] was > 60 min.
For CC1=C(C)/C(=C/NC2CCCCCC2)N=C1c1ccc(CC(C)C)[nH]1.Cl [compound 111, (Z)-N-((5-Isobutyl-3',4'-dimethyl-1H,5'H-[2,2'-bipyrrol]-5'-ylidene)methyl)cycloheptanamine Hydrochloride], the “metabolic stability (t1/2, min) vs MLM” value [1] was > 60.0 min and the “metabolic stability (t1/2, min) vs HLM” value [2] was > 60.0 min.
For COC1=CC(c2ccc[nH]2)=N/C1=C\Nc1ccc(F)c(OC)c1.Cl [compound 62, (Z)-4-Fluoro-3-methoxy-N-((4'-methoxy-1H,5'H-[2,2'-bipyrrol]-5'-ylidene)methyl)aniline Hydrochloride], the “metabolic stability (t1/2, min) vs MLM” value [1] was 19.1 min and the “metabolic stability (t1/2, min) vs HLM” value [2] was > 60.0 min.
In the case of COC1=CC(c2ccc[nH]2)=N/C1=C\NCC1CCCCCC1.Cl [compound 46, (Z)-1-Cycloheptyl-N-((4'-methoxy-1H,5'H-[2,2'-bipyrrol]-5'-ylidene)methyl)-methanamine Hydrochloride], the “metabolic stability (t1/2, min) vs MLM” value [1] was 12.3 min and the “metabolic stability (t1/2, min) vs HLM” value [2] was 18.6 min.
In the case of COC1=CC(c2ccc[nH]2)=N/C1=C\Nc1ccc(C)cc1.Cl [compound 52, (Z)-N-((4'-Methoxy-1H,5'H-[2,2'-bipyrrol]-5'-ylidene)methyl)-4-methylaniline Hydrochloride], the “metabolic stability (t1/2, min) vs MLM” value [1] was 28.9 min.
With Cc1ccc(N/C=C2\N=C(c3ccc[nH]3)C3=C2CCCC3)cc1.Cl [compound 105, (Z)-N-((3-(1H-Pyrrol-2-yl)-4,5,6,7-tetrahydro-1H-isoindol-1-ylidene)methyl)-4-methylaniline Hydrochloride] the “metabolic stability (t1/2, min) vs MLM” value [1] was 31.2 min and the “metabolic stability (t1/2, min) vs HLM” value [2] was 42.1 min.
With COC1=CC(c2ccc(Cc3ccc(OC)cc3)[nH]2)=N/C1=C\NC1CCCCC1.Cl [compound 120, (Z)-N-((4'-Methoxy-5-(4-methoxybenzyl)-1H,5'H-[2,2'-bipyrrol]-5'-ylidene)methyl)cyclohexanamine Hydrochloride] the “metabolic stability (t1/2, min) vs MLM” value [1] was 13.8 min and the “metabolic stability (t1/2, min) vs HLM” value [2] was 19.7 min.
For Cc1ccc(Oc2ccc(N/C=C3\N=C(c4ccc[nH]4)C4=C3CCCC4)cc2)cc1.Cl [compound 109, (Z)-N-((3-(1H-Pyrrol-2-yl)-4,5,6,7-tetrahydro-1H-isoindol-1-ylidene)methyl)-4-(p-tolyloxy)aniline Hydrochloride], the “metabolic stability (t1/2, min) vs MLM” value [1] was > 60.0 min and the “metabolic stability (t1/2, min) vs HLM” value [2] was > 60.0 min.
In the case of C(/NC1CCCCCC1)=C1/N=C(c2ccc[nH]2)C2=C1CCCC2.Cl [compound 102], the “metabolic stability (t1/2, min) vs MLM” value [1] was 9.71 min and the “metabolic stability (t1/2, min) vs HLM” value [2] was > 60.0 min.
In the case of CCc1c[nH]c(C2=N/C(=C\NC3CCCCCC3)C(C)=C2C)c1.Cl [compound 113, (Z)-N-((4-Ethyl-3',4'-dimethyl-1H,5'H-[2,2'-bipyrrol]-5'-ylidene)methyl)cycloheptanamine Hydrochloride], the “metabolic stability (t1/2, min) vs HLM” value [2] was > 60.0 min.
In the case of CCc1ccc(C2=N/C(=C\NC3CCCCCC3)C(OC)=C2)[nH]1.Cl [compound 117, (Z)-N-((5-Ethyl-4'-methoxy-1H,5'H-[2,2'-bipyrrol]-5'-ylidene)methyl)cycloheptanamine Hydrochloride], the “metabolic stability (t1/2, min) vs MLM” value [1] was 7.98 min and the “metabolic stability (t1/2, min) vs HLM” value [2] was > 60.0 min.
In the case of Cl.FC(F)(F)Oc1ccc(OC2=CC(c3ccc[nH]3)=N/C2=C\NC23CC4CC(CC(C4)C2)C3)cc1 [compound 70, (3s,5s,7s)-N-((Z)-(4'-(4-(Trifluoromethoxy)phenoxy)-1H,5'H-[2,2'-bipyrrol]-5'-ylidene)methyl)adamantan-1-amine Hydrochloride], the “metabolic stability (t1/2, min) vs MLM” value [1] was > 60.0 min and the “metabolic stability (t1/2, min) vs HLM” value [2] was > 60.0 min.
With Cl.FC(F)(F)Oc1ccc(C2=CC(c3ccc[nH]3)=N/C2=C\NC23CC4CC(CC(C4)C2)C3)cc1 [compound 80, (3s,5s,7s)-N-((Z)-(4'-(4-(Trifluoromethoxy)phenyl)-1H,5'H-[2,2'-bipyrrol]-5'-ylidene)methyl)adamantan-1-amine Hydrochloride] the “metabolic stability (t1/2, min) vs MLM” value [1] was > 60.0 min and the “metabolic stability (t1/2, min) vs HLM” value [2] was > 60.0 min.
With C(/NCC1CCCCCC1)=C1/N=C(c2ccc[nH]2)C2=C1CCCC2.Cl [compound 104, (Z)-1-(3-(1H-Pyrrol-2-yl)-4,5,6,7-tetrahydro-1H-isoindol-1-ylidene)-N-(cycloheptylmethyl)methanamine Hydrochloride] the “metabolic stability (t1/2, min) vs MLM” value [1] was > 60.0 min and the “metabolic stability (t1/2, min) vs HLM” value [2] was > 60.0 min.
For CC1=C(C)/C(=C/NC2CCCCCC2)N=C1c1ccc[nH]1.Cl [compound 90], the “metabolic stability (t1/2, min) vs MLM” value [1] was 11.2 min and the “metabolic stability (t1/2, min) vs HLM” value [2] was 45.1 min.
For COC1=CC(c2ccc[nH]2)=N/C1=C\Nc1ccc(Cl)c(Cl)c1.Cl [compound 60, (Z)-3,4-Dichloro-N-((4'-methoxy-1H,5'H-[2,2'-bipyrrol]-5'-ylidene)methyl)aniline Hydrochloride], the “metabolic stability (t1/2, min) vs MLM” value [1] was 46.7 min and the “metabolic stability (t1/2, min) vs HLM” value [2] was 56.2 min.
For COC1=CC(c2ccc(-c3ccc(OC)cc3)[nH]2)=N/C1=C\NC1CCCCCC1.Cl [compound 118, (Z)-N-((4'-Methoxy-5-(4-methoxyphenyl)-1H,5'H-[2,2'-bipyrrol]-5'-ylidene)methyl)cycloheptanamine Hydrochloride], the “metabolic stability (t1/2, min) vs MLM” value [1] was > 60.0 min and the “metabolic stability (t1/2, min) vs HLM” value [2] was > 60.0 min.
In the case of COC1=CC(c2ccc[nH]2)=N/C1=C\NC1CCCCCC1.Cl [compound 45], the “metabolic stability (t1/2, min) vs MLM” value [1] was 8.20 min and the “metabolic stability (t1/2, min) vs HLM” value [2] was 52.1 min.
With COC1=CC(c2ccc(Cc3ccc(OC)cc3)[nH]2)=N/C1=C\NC12CC3CC(CC(C3)C1)C2.Cl [compound 123, (3s,5s,7s)-N-((Z)-(4'-Methoxy-5-(4-methoxybenzyl)-1H,5'H-[2,2'-bipyrrol]-5'-ylidene)methyl)adamantan-1-amine Hydrochloride] the “metabolic stability (t1/2, min) vs MLM” value [1] was > 60.0 min and the “metabolic stability (t1/2, min) vs HLM” value [2] was > 60.0 min.
For CCc1ccc(C2=N/C(=C\NC3CCCCCCC3)C(C)=C2C)[nH]1.Cl [compound 112, (Z)-N-((5-Ethyl-3',4'-dimethyl-1H,5'H-[2,2'-bipyrrol]-5'-ylidene)methyl)cyclooctanamine Hydrochloride], the “metabolic stability (t1/2, min) vs MLM” value [1] was > 60.0 min and the “metabolic stability (t1/2, min) vs HLM” value [2] was > 60.0 min.
In the case of COC1=CC(c2ccc[nH]2)=N/C1=C\N[C@H]1CC[C@H](C(F)(F)F)CC1.Cl [compound 48, (1r,4r)-N-((Z)-(4'-Methoxy-1H,5'H-[2,2'-bipyrrol]-5'-ylidene)methyl)-4-(trifluoromethyl)cyclohexan-1-amine Hydrochloride], the “metabolic stability (t1/2, min) vs MLM” value [1] was 15.4 min and the “metabolic stability (t1/2, min) vs HLM” value [2] was 13.0 min.
In the case of COC1=CC(c2ccc[nH]2)=N/C1=C\Nc1cccc(Cl)c1.Cl [compound 57, (Z)-3-Chloro-N-((4'-methoxy-1H,5'H-[2,2'-bipyrrol]-5'-ylidene)methyl)aniline Hydrochloride], the “metabolic stability (t1/2, min) vs MLM” value [1] was 42.0 min and the “metabolic stability (t1/2, min) vs HLM” value [2] was > 60.0 min.
In the case of COC1=CC(c2ccc[nH]2)=N/C1=C\N[C@H]1CC[C@H](C)CC1.Cl [compound 47, (1r,4r)-N-((Z)-(4'-Methoxy-1H,5'H-[2,2'-bipyrrol]-5'-ylidene)methyl)-4-methylcyclohexan-1-amine Hydrochloride], the “metabolic stability (t1/2, min) vs MLM” value [1] was 11.4 min and the “metabolic stability (t1/2, min) vs HLM” value [2] was 17.3 min.
With CCc1c(C)[nH]c(C2=N/C(=C\NC34CC5CC(CC(C5)C3)C4)C(C)=C2C)c1C.Cl [compound 116] the “metabolic stability (t1/2, min) vs MLM” value [1] was 29.0 min and the “metabolic stability (t1/2, min) vs HLM” value [2] was > 60.0 min.
